What was measured:
human PTPN2 (1-387) = human PTPN2 (1-387) (Homo sapiens (Human), UniProt P17706); experiment: Human PTPN2 Biochemical Assay; details: DiFMUP substrate
Description: Human PTPN2 Biochemical Assay
Test compounds were dissolved in DMSO, and 10-point serial 3-fold dilution series in DMSO were prepared in Echo Qualified 384-well Polypropylene Microplates (Labcyte, San Jose, CA) (top concentration 50 µM). Assay plates (384-well low volume black plates; Corning #3820, Corning, NY) were prepared by dispensing 50 nL of test compound, and DMSO (for high and low controls) by ECHO acoustic dispenser (Labcyte, San Jose CA). This was followed by addition of 5 μL of 0.2 nM human PTPN2 (1-387) solution (prepared in the assay buffer, 50 mM Tris pH 7.4, 150 mM NaCl, 0.01% Tween20, 0.5 mM dithiothreitol) to all wells except the low control. 5 μl of assay buffer was added into the low control, then the plate was incubated for 30 minutes at room temperature. Subsequently, 5 μl of 100 µM DiFMUP (6,8-difluoro-4-methylumbelliferyl phosphate) solution (prepared in assay buffer from 10 mM stock in DMSO) was added to the assay plate and incubated for 1 hour at room temperature. For detection, assay plates were read on SpectraMax Microplate Reader (Molecular Devices), with Excitation wavelength=360 nm and Emission wavelength=460 nm. Test compound effects were normalized to the window defined by the controls, DMSO/buffer, and DMSO/50 pM human PTPN2. Calculated % effects were fit using a 4-parameter algorithm, and EC50 was reported.

human PTPN1 (1-435) = human PTPN1 (1-435) (Homo sapiens (Human), UniProt P18031); experiment: Human PTPN1 Biochemical Assay; details: DiFMUP substrate, read-out: PTP1B IC50
Chain of human PTPN1 (1-435) (P18031 whole entry): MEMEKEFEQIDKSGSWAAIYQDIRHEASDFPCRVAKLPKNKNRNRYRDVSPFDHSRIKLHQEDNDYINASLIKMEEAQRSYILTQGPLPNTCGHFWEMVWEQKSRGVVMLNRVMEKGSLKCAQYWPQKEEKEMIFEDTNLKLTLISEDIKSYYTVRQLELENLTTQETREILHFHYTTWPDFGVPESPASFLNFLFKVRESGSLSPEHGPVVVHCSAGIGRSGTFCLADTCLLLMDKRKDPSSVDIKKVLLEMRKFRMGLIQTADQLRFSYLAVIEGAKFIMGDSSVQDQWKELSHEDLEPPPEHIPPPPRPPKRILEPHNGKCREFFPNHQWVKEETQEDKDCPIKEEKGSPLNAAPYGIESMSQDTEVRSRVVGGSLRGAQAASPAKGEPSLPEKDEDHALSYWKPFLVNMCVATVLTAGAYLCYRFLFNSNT
Description: Human PTPN1 Biochemical Assay
Test compounds were dissolved in DMSO, and 10-point serial 3-fold dilution series in DMSO were prepared in Echo Qualified 384-well Polypropylene Microplates (Labcyte, San Jose, CA) (top concentration 50 µM). […] 5 μl of assay buffer was added into the low control. The plate was incubated for 30 minutes at room temperature. Subsequently, 5 μl of 100 µM DiFMUP (6,8-difluoro-4-methylumbelliferyl phosphate) solution (prepared in assay buffer from 10 mM stock in DMSO) was added to the assay plate and incubated for 1 hour at room temperature. For detection, assay plates were read on SpectraMax Microplate Reader (Molecular Devices), with Excitation wavelength=360 nm and Emission wavelength=460 nm. […] Calculated % effects were fit using a 4-parameter algorithm, and EC50 was reported.

Chain of human PTPN2 (1-387) (P17706 other isoform, or with tags, fused parts or gaps): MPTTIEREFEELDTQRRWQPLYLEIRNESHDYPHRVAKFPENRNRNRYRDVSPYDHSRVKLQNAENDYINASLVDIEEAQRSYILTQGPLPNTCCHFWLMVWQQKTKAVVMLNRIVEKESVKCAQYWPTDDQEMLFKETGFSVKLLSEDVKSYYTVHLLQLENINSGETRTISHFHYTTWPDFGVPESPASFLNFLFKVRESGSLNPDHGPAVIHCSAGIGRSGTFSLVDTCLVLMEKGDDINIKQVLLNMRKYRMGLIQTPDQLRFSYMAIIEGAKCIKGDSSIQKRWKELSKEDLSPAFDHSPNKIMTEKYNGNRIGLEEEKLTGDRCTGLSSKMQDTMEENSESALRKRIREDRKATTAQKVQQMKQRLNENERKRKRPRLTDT

| IC50 (human PTPN2 (1-387)) | IC50 (human PTPN1 (1-435)) | Structure (SMILES) |
| --- | --- | --- |
| 8.89 µM | 5.25 µM | N#CCCNC(=O)c1ccc2sc(C(F)(F)P(=O)(O)O)c(Br)c2c1 [Compound 12] |
| 5.3 µM | 4.11 µM | O=C(NC(c1ccccc1F)C(F)(F)F)c1ccc2sc(C(F)(F)P(=O)(O)O)c(Br)c2c1 (stereo not drawn) [Compound 13] |
| 4.12 µM | 2.69 µM | O=C(N[C@@H]1CCC[C@H]1OCc1ccccc1)c1ccc2sc(C(F)(F)P(=O)(O)O)c(Br)c2c1 [Compound 14] |
| 6.16 µM | 5.62 µM | O=C(N[C@H]1Cc2ccc(F)cc21)c1ccc2sc(C(F)(F)P(=O)(O)O)c(Br)c2c1 [Compound 15] |
| 7.25 µM | 5.12 µM | O=C(NCC1CC1)c1ccc2sc(C(F)(F)P(=O)(O)O)c(Br)c2c1 [Compound 16] |
| 1.91 µM | 1.46 µM | O=C(Nc1cccc(OCC2CCCO2)c1)c1ccc2sc(C(F)(F)P(=O)(O)O)c(Br)c2c1 (stereo not drawn) [Compound 17] |
| 2.17 µM | 1.33 µM | O=C(Nc1cccc(OC(F)(F)F)c1)c1ccc2sc(C(F)(F)P(=O)(O)O)c(Br)c2c1 [Compound 18] |
| 2.35 µM | 1.5 µM | O=C(Nc1ncc(C2CCC2)o1)c1ccc2sc(C(F)(F)P(=O)(O)O)c(Br)c2c1 [Compound 19] |
| 6.14 µM | 4.44 µM | CN(C(=O)c1ccc2sc(C(F)(F)P(=O)(O)O)c(Br)c2c1)c1cccc(Oc2ccccc2)c1 [Compound 20] |
| 2.59 µM | 1.99 µM | O=C(NCc1cnn2ccccc12)c1ccc2sc(C(F)(F)P(=O)(O)O)c(Br)c2c1 [Compound 22] |
| 9.28 µM | 7.25 µM | O=C(Nc1cccnc1Oc1ccccc1)c1ccc2sc(C(F)(F)P(=O)(O)O)c(Br)c2c1 [Compound 23] |
| 2.16 µM | 1.36 µM | COc1cccc(NC(=O)c2ccc3sc(C(F)(F)P(=O)(O)O)c(Br)c3c2)c1 [Compound 24] |
| 3.17 µM | 2.57 µM | O=C(Nc1ccc(F)cc1)c1ccc2sc(C(F)(F)P(=O)(O)O)c(Br)c2c1 [Compound 25] |
| 2.34 µM | 1.72 µM | O=C(Nc1ccc(OCC2CCCO2)cc1)c1ccc2sc(C(F)(F)P(=O)(O)O)c(Br)c2c1 (stereo not drawn) [Compound 26] |
| 3.23 µM | 2.19 µM | O=C(NC1CC(F)(F)C1)c1ccc2sc(C(F)(F)P(=O)(O)O)c(Br)c2c1 [Compound 27] |
| 6.93 µM | 5.16 µM | O=C(NCC1CC(F)(F)C1)c1ccc2sc(C(F)(F)P(=O)(O)O)c(Br)c2c1 [Compound 28] |
| 3.34 µM | 2.49 µM | COc1ccc(NC(=O)c2ccc3sc(C(F)(F)P(=O)(O)O)c(Br)c3c2)cc1 [Compound 29] |
| 2.09 µM | 1.84 µM | O=C(NCc1cncc(C(F)(F)F)c1)c1ccc2sc(C(F)(F)P(=O)(O)O)c(Br)c2c1 [Compound 30] |
| 1.89 µM | 1.31 µM | O=C(Nc1ccccc1F)c1ccc2sc(C(F)(F)P(=O)(O)O)c(Br)c2c1 [Compound 32] |
| 1.86 µM | 2.12 µM | O=C(Nc1cccc(F)c1)c1ccc2sc(C(F)(F)P(=O)(O)O)c(Br)c2c1 [Compound 33] |
| 5.86 µM | 4.48 µM | N#CCCCNC(=O)c1ccc2sc(C(F)(F)P(=O)(O)O)c(Br)c2c1 [Compound 34] |
| 7.16 µM | 6.44 µM | CC(NC(=O)c1ccc2sc(C(F)(F)P(=O)(O)O)c(Br)c2c1)c1cccnc1 (stereo not drawn) [Compound 35] |
| 3.93 µM | 2.75 µM | O=C(NC1CCC(F)(F)CC1)c1ccc2sc(C(F)(F)P(=O)(O)O)c(Br)c2c1 [Compound 36] |
| 3.49 µM | 2.65 µM | N#CC1CCC(NC(=O)c2ccc3sc(C(F)(F)P(=O)(O)O)c(Br)c3c2)C1 (stereo not drawn) [Compound 37] |

| IC50 (human PTPN2 (1-387)) | IC50 (human PTPN1 (1-435)) | Structure (SMILES) |
| --- | --- | --- |
| 4.24 µM | 3.4 µM | N#CC1(CNC(=O)c2ccc3sc(C(F)(F)P(=O)(O)O)c(Br)c3c2)CC1 [Compound 38] |
| 3 µM | 2.27 µM | O=C(NC1CC1(F)F)c1ccc2sc(C(F)(F)P(=O)(O)O)c(Br)c2c1 (stereo not drawn) [Compound 39] |
| 5.78 µM | 4.2 µM | COC1CC(NC(=O)c2ccc3sc(C(F)(F)P(=O)(O)O)c(Br)c3c2)C1 (stereo not drawn) [Compound 40] |
| 3.23 µM | 2.23 µM | O=C(NC1CCC(F)(F)C1)c1ccc2sc(C(F)(F)P(=O)(O)O)c(Br)c2c1 (stereo not drawn) [Compound 41] |
| 2.38 µM | 1.78 µM | O=C(NCc1cncnc1)c1ccc2sc(C(F)(F)P(=O)(O)O)c(Br)c2c1 [Compound 42] |
| 6.53 µM | 4.9 µM | Cc1noc(C)c1CCNC(=O)c1ccc2sc(C(F)(F)P(=O)(O)O)c(Br)c2c1 [Compound 43] |
| 3.06 µM | 2.47 µM | CS(=O)(=O)N1CCC(NC(=O)c2ccc3sc(C(F)(F)P(=O)(O)O)c(Br)c3c2)CC1 [Compound 44] |
| 5.17 µM | 4.08 µM | COCCCCNC(=O)c1ccc2sc(C(F)(F)P(=O)(O)O)c(Br)c2c1 [Compound 45] |
| 8.5 µM | 6.23 µM | N#CCCCCNC(=O)c1ccc2sc(C(F)(F)P(=O)(O)O)c(Br)c2c1 [Compound 46] |
| 4.91 µM | 4.21 µM | O=C(NCCCC(F)(F)F)c1ccc2sc(C(F)(F)P(=O)(O)O)c(Br)c2c1 [Compound 47] |
| 7.15 µM | 5.53 µM | CS(=O)(=O)N1CC2(CC(NC(=O)c3ccc4sc(C(F)(F)P(=O)(O)O)c(Br)c4c3)C2)C1 [Compound 48] |
| 5.09 µM | 4.15 µM | O=C(NCC(F)(F)F)c1ccc2sc(C(F)(F)P(=O)(O)O)c(Br)c2c1 [Compound 49] |
| 7.49 µM | 6.39 µM | Cc1nn(C)cc1CNC(=O)c1ccc2sc(C(F)(F)P(=O)(O)O)c(Br)c2c1 [Compound 50] |
| 1.35 µM | 1.11 µM | O=C(NCc1nnc2n1CCC2)c1ccc2sc(C(F)(F)P(=O)(O)O)c(Br)c2c1 [Compound 51] |
| 6.82 µM | 5.68 µM | O=C(N[C@H]1CC[C@H](C(F)(F)F)CC1)c1ccc2sc(C(F)(F)P(=O)(O)O)c(Br)c2c1 [Compound 52] |
| 4.11 µM | 3.24 µM | O=C(NCCC1CCCCC1)c1ccc2sc(C(F)(F)P(=O)(O)O)c(Br)c2c1 [Compound 53] |
| 6.75 µM | 5.03 µM | O=C(N[C@H]1CC[C@@H](C(F)(F)F)CC1)c1ccc2sc(C(F)(F)P(=O)(O)O)c(Br)c2c1 [Compound 54] |
| 9.7 µM | 7.62 µM | CC(C)CNC(=O)c1ccc2sc(C(F)(F)P(=O)(O)O)c(Br)c2c1 [Compound 55] |
| 3.93 µM | 2.88 µM | O=C(NC1CCS(=O)(=O)C1)c1ccc2sc(C(F)(F)P(=O)(O)O)c(Br)c2c1 (stereo not drawn) [Compound 56] |
| 5.09 µM | 4.33 µM | O=C(N[C@@H]1[C@@H]2COC[C@@H]21)c1ccc2sc(C(F)(F)P(=O)(O)O)c(Br)c2c1 [Compound 57] |
| 7.9 µM | 9.05 µM | CN1CCCC(NC(=O)c2ccc3sc(C(F)(F)P(=O)(O)O)c(Br)c3c2)C1 (stereo not drawn) [Compound 58] |
| 0.55 µM | 1.39 µM | O=C(NCCC1CC1)c1ccc2sc(C(F)(F)P(=O)(O)O)c(Br)c2c1 [Compound 59] |
| 2.53 µM | 5.72 µM | CC(C)OCCNC(=O)c1ccc2sc(C(F)(F)P(=O)(O)O)c(Br)c2c1 [Compound 60] |

| Structure (SMILES) | IC50 (human PTPN2 (1-387)) | IC50 (human PTPN1 (1-435)) |
| --- | --- | --- |
| N#CC1(c2ccc(NC(=O)c3ccc4sc(C(F)(F)P(=O)(O)O)c(Br)c4c3)cc2)CCCCC1 [Compound 21] | 2.15 µM | 1.41 µM |

Source: patent US20250059220A1, “SUBSTITUTED BENZOTHIOPHENE DERIVATIVES AND METHODS OF USE THEREOF” (Merck Sharp & Dohme LLC, priority 2021, published 2025)
